The values that follow come from PMC11855827, “High-Throughput Screening of Five Compound Libraries for Anthelmintic Activity and Toxicity Leads to the Discovery of Two Flavonoid Compounds” (International Journal of Molecular Sciences, 2025).

The structures appear in SMILES notation. Counter-ions that a name gives are not always drawn. Like-named read-outs stand apart in the source and are kept apart here.

For this assay, the system named is C. elegans. Nature of the assay: microbe, parasite or virus in culture. The note with it: Caenorhabditis elegans.
Where [1] appears, read: 0 h, read-out: Percentage of motility inhibition 0 h, Table S2, C. elegans SS assay, 110 μM, 0 h, averages of 4 data points.
The mark [2] stands for this setting: 24 h, read-out: Percentage of motility inhibition 24 h, Table S2, C. elegans SS assay, 110 μM, 24 h, averages of 4 data points.
Where [3] appears, read: 0 h, read-out: Percentage of motility inhibition 0 h.

In the case of `Cc1onc(-c2ccccc2)c1C(=O)N1CCN(c2ccc([N+](=O)[O-])cc2Cl)CC1` [Nucleozin], the inhibition at 110 µM reads like this: under setting [1], 17%; under setting [2], 8%.
Consider `CNCc1ccccc1` [N‐Methylbenzylamine], for which the inhibition at 110 µM runs as follows: under setting [1], 0%; under setting [2], 4%.
`CNC(=O)c1cccnc1` [N‐Methylnicotinamide]: the inhibition at 110 µM is, setting by setting: under setting [1], 3%; under setting [2], 0%.
Regarding `CC1COc2c(N3CCN(C)CC3)c(F)cc3c(=O)c(C(=O)O)cn1c23` (stereo not shown) [Ofloxacin], the inhibition at 110 µM reads like this: under setting [1], 2%; under setting [2], 0%.
`CC1(C)CC[C@]2(C(=O)O)CC[C@]3(C)C(=CC[C@@H]4[C@@]5(C)CCC(=O)C(C)(C)[C@@H]5CC[C@]43C)[C@@H]2C1` [Oleanonic acid]: the inhibition at 110 µM under setting [3] was 15%.
Regarding `CCCCCCCC/C=C\CCCCCCCC(=O)O` [Oleic acid], the inhibition at 110 µM under setting [1] was determined as 0% and the inhibition at 110 µM under setting [2] stood at 0%.
`C/C=C1/[C@H](O[C@@H]2O[C@H](CO)[C@@H](O)[C@H](O)[C@H]2O)OC=C(C(=O)OC)[C@H]1CC(=O)OCCc1ccc(O)c(O)c1` [Oleuropein]: the inhibition at 110 µM by setting is: under setting [1], 0%; under setting [2], 0%.
In the case of `COc1ccc(-c2coc3cc(O[C@@H]4O[C@H](CO)[C@@H](O)[C@H](O)[C@H]4O)ccc3c2=O)cc1` [Ononin], the inhibition at 110 µM reads like this: under setting [1], 10%; under setting [2], 0%.
On to `C=C1C(=O)[C@]23[C@H](O)[C@H]1CC[C@H]2[C@@]12CO[C@]3(O)[C@@H](O)[C@@H]1C(C)(C)CC[C@@H]2O` [Oridonin], for which the inhibition at 110 µM is, setting by setting: under setting [1], 0%; under setting [2], 3%.
As to `Cc1ncc([N+](=O)[O-])n1CC(O)CCl` (stereo not shown) [Ornidazole], the inhibition at 110 µM under setting [1] turned out to be 8% and the inhibition at 110 µM under setting [2] was found to be 7%.
`COc1c(O)cc2oc(-c3ccccc3)cc(=O)c2c1O` [Oroxylin A]: the inhibition at 110 µM reads like this: under setting [1], 39%; under setting [2], 12%.
Take `O=C(Nc1ccc(O)cc1)c1ccccc1O` [Osalmid]: the inhibition at 110 µM under setting [1] was 48% and the inhibition at 110 µM under setting [2] was 1%.
For `CN(C(=O)CN(CCO)CC(=O)N(C)C(C)(C)Cc1ccccc1)C(C)(C)Cc1ccccc1` [Oxethazaine] the same measures were 44% and 25%.
On the same counts, the results for `COC(=O)Nc1nc2ccc([S+]([O-])c3ccccc3)cc2[nH]1` (stereo not shown) [Oxfendazole] are 12% and 5%.
`CCCOc1ccc2nc(NC(=O)OC)[nH]c2c1` [Oxibendazole]: the inhibition at 110 µM runs as follows: under setting [1], 17%; under setting [2], 28%.
Turning to `O=C1Cc2ccccc2N1` [Oxindole], the inhibition at 110 µM was determined as 14% under setting [1] and 7% under setting [2].
As for `O=C(Nc1cc(Cl)cc(Cl)c1O)c1c(O)c(Cl)cc(Cl)c1Cl` [Oxyclozanide, reference compound], the inhibition at 110 µM came out at 10 ± 9% (0 h, read-out: Inhibition (%) 110 μM (0 h), C. elegans L4 motility, 110 μM, 0 h, mean ± SD of four experiments) and 93 ± 5% (24 h, read-out: Inhibition (%) 110 μM (24 h), C. elegans L4 motility, 110 μM, 24 h, mean ± SD of four experiments).
Consider `CCCCC1C(=O)N(c2ccccc2)N(c2ccc(O)cc2)C1=O` (stereo not shown) [Oxyphenbutazone], for which the inhibition at 110 µM is 0% under setting [1] and 0% under setting [2].
As to `O=C1C=CC[C@@H]2[C@H]3CCC[N+]4([O-])CCC[C@@H](CN12)[C@@H]34` (stereo partly shown) [Oxysophocarpine], the inhibition at 110 µM by setting is: under setting [1], 34%; under setting [2], 0%.
For `CN(C)[C@@H]1C(O)=C(C(N)=O)C(=O)[C@@]2(O)C(O)=C3C(=O)c4c(O)cccc4[C@@](C)(O)[C@H]3[C@H](O)[C@@H]12` [Oxytetracycline], the inhibition at 110 µM came to 20% under setting [1] and 13% under setting [2].
For `O=[N+]([O-])c1cn2c(n1)OC[C@@H](OCc1ccc(OC(F)(F)F)cc1)C2` [PA‐824], the inhibition at 110 µM reads like this: under setting [1], 33%; under setting [2], 0%.
Consider `CC(C)OC(=O)[C@H](C)N[P@](=O)(OC[C@H]1O[C@@H](n2ccc(=O)[nH]c2=O)[C@](C)(F)[C@@H]1O)Oc1ccccc1` [PSI‐7977], for which the inhibition at 110 µM amounted to 6% under setting [1] and 11% under setting [2].
In the case of `C=C(CC[C@@H](C(=O)O)[C@H]1[C@H](O)C[C@@]2(C)C3=C(CC[C@]12C)[C@@]1(C)CC[C@H](OC(C)=O)C(C)(C)[C@@H]1CC3)C(C)C` [Pachymic acid], the inhibition at 110 µM by setting is: under setting [1], 45%; under setting [2], 21%.
On the same counts, the results for `C[C@@]12C[C@@]3(O)O[C@@H](O1)[C@]1(COC(=O)c4ccccc4)[C@H]3C[C@@]12O[C@@H]1O[C@H](CO)[C@@H](O)[C@H](O)[C@H]1O` [Paeoniflorin] are 4% and 10%.
Turning to `COc1ccc(C(C)=O)c(O)c1` [Paeonol], the inhibition at 110 µM is, setting by setting: under setting [3], 0%; (24 h, read-out: Percentage of motility inhibition 24 h) 0%.
On to `CC1(C)CCC[C@](C)([C@H]2CC[C@]3(C)[C@@H]2[C@H](O)C[C@@H]2[C@@]4(C)CC[C@H](O)C(C)(C)[C@@H]4CC[C@]23C)O1` [Panaxadiol], for which the inhibition at 110 µM amounted to 39% under setting [1] and 36% under setting [2].
On to `C=C1C(=O)O[C@H]2[C@H]1CC/C(C)=C/CC[C@@]1(C)O[C@@H]21` [Parthenolide], for which the inhibition at 110 µM by setting is: under setting [1], 6%; under setting [2], 26%.
Take `COc1ccc(-c2cc(=O)c3c(O)c(OC)c(O)cc3o2)cc1` [Pectolinarigenin]: the inhibition at 110 µM by setting is: under setting [1], 4%; under setting [2], 0%.
In the case of `C[C@@H]1CC[C@]2(C(=O)O[C@@H]3O[C@H](CO)[C@@H](O)[C@H](O)[C@H]3O)CC[C@]3(C)C(=CC[C@@H]4[C@@]5(C)CC[C@H](O)[C@@](C)(CO)[C@@H]5CC[C@]43C)[C@@H]2[C@]1(C)O` [Pedunculoside], the inhibition at 110 µM was determined as 14% under setting [1] and 13% under setting [2].
On the same counts, the results for `Nc1nc2c(ncn2CCC(CO)CO)c(=O)[nH]1` [Penciclovir] are 22% and 1%.
For `CC1(C)S[C@@H]2[C@H](NC(=O)Cc3ccccc3)C(=O)N2[C@H]1C(=O)O` [Penicillin G s odium salt] the same measures were 16% and 22%.
With `CC(C)CC(C)c1sccc1NC(=O)c1cn(C)nc1C(F)(F)F` (stereo not shown) [Penthiopyrad], the inhibition at 110 µM reads like this: under setting [1], 21%; under setting [2], 18%.
As to `CC(=O)O[C@@H]1[C@H]2[C@H]3C[C@H]4C5=Nc6ccccc6[C@]51C[C@@H]2N4[C@H](C)C3C=O` (stereo partly shown) [Perakine], the inhibition at 110 µM reads like this: under setting [1], 0%; under setting [2], 0%.
`CC1(C)C(C=C(Cl)Cl)C1C(=O)OCc1cccc(Oc2ccccc2)c1` (stereo not shown) [Permethrin]: the inhibition at 110 µM under setting [1] was 9% and the inhibition at 110 µM under setting [2] worked out at 7%.
Take `O=C(O)c1cccc2nc3ccccc3nc12` [Phenazine‐1‐carboxylic acid]: the inhibition at 110 µM is, setting by setting: under setting [1], 0%; under setting [2], 11%.
For `O=C(CCc1ccc(O)cc1)c1c(O)cc(O)cc1O[C@@H]1O[C@H](CO)[C@@H](O)[C@H](O)[C@H]1O` [Phlorizin] the same measures were 0% and 2%.
For `CC1=C[C@H]2[C@@]3(O)[C@H](C)[C@@H](O)[C@]4(O)[C@H]([C@@H]3C=C(CO)C[C@]2(O)C1=O)C4(C)C` [Phorbol] the same measures were 0% and 6%.

The inhibition is the percentage by which the read-out fell short of the control.
